# Laboratory results published in US6204293A, “Inhibitors of protein isoprenyl transferases” (University of Pittsburgh, priority 1998, dated 2001).
# Molecular target: T1, Rat brain protein farnesyltransferase (Rattus norvegicus, UniProt Q02293+Q04631)
# T1 construct: Rat brain protein farnesyltransferase activity is measured; from tissue; host or cells: rat brain
# Assay: % inhibition of farnesylation, scintillation proximity assay with biotin-K Ras B fragment
# Type: biochemical
# Conditions: Table 1; 1 × 10^-5 M
# Outline: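 Rat brain enzyme, purified through three steps, in a scintillation proximity assay kit with biotin-K Ras B fragment substrate at 0.1 mM final. Value is % inhibition of farnesylation.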
# T1 sequence (Q02293 whole entry, one chain of several): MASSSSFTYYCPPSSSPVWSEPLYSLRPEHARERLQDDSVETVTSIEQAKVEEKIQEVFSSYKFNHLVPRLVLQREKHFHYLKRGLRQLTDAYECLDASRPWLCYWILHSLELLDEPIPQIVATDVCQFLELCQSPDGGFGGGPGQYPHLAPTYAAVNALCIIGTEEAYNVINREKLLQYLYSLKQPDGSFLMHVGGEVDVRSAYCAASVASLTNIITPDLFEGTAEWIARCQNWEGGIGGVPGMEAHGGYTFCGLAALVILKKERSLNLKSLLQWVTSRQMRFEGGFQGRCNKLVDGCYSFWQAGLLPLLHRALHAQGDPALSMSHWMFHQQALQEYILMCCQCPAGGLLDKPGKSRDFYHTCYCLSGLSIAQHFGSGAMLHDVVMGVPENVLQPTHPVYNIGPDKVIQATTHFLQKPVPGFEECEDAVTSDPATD
row,Structure (SMILES),% inhibition at 1 × 10^-5 M [%]
1,CSCC[C@H](NC(=O)c1ccc(CNC(CO)C(O)c2ccccc2)cc1-c1ccccc1)C(=O)O (stereo partly drawn) [Example 713],40
2,CSCC[C@H](NC(=O)c1ccc(CNC(CO)Cc2ccccc2)cc1-c1ccccc1)C(=O)O (stereo partly drawn) [Example 714],56
3,CSCC[C@H](NC(=O)c1ccc(CN[C@H](CC2CCCCC2)[C@H](O)[C@H](O)CC(C)C)cc1-c1ccccc1)C(=O)O [Example 715],67
4,CSCC[C@H](NC(=O)c1ccc(CNCCCCc2ccccc2)cc1-c1ccccc1)C(=O)O [Example 718],40
5,CSCC[C@H](NC(=O)c1ccc(NC(=O)CCN)cc1-c1ccccc1)C(=O)O [Example 750],44
6,CSCC[C@H](NC(=O)c1ccc(NC(=O)c2cccc(N(C)C)c2)cc1-c1ccccc1)C(=O)O [Example 752],58
7,COc1cc(Cl)ccc1C(=O)Nc1ccc(C(=O)N[C@@H](CCSC)C(=O)O)c(-c2ccccc2)c1 [Example 753],55
8,COc1ccc(Br)c(C(=O)Nc2ccc(C(=O)N[C@@H](CCSC)C(=O)O)c(-c3ccccc3)c2)c1 [Example 754],40
9,COc1cc(I)c(C(=O)Nc2ccc(C(=O)N[C@@H](CCSC)C(=O)O)c(-c3ccccc3)c2)cc1OC [Example 756],47
10,CSCC[C@H](NC(=O)c1ccc(NC(=O)Cc2ccccc2[N+](=O)[O-])cc1-c1ccccc1)C(=O)O [Example 757],58

# Same assay, conditions: Table 2; 1 × 10^-6 M
row,Structure (SMILES),% inhibition at 1 × 10^-6 M [%]
1,CSCC[C@H](NC(=O)c1ccc(CN[C@@H](CC2CCCCC2)[C@@H](O)[C@@H](O)CC(C)C)cc1-c1ccccc1)C(=O)O [Example 716],69
2,CSCC[C@H](NC(=O)c1ccc(CN(C)CC(O)CO)cc1-c1ccccc1C)C(=O)O (stereo partly drawn) [Example 719],90
3,CCc1nnc(NCc2ccc(C(=O)N[C@@H](CCSC)C(=O)O)c(-c3ccccc3C)c2)s1 [Example 723],87
4,COC(=O)c1cscc1NCc1ccc(C(=O)N[C@@H](CCSC)C(=O)O)c(-c2ccccc2C)c1 [Example 724],87
5,CSCC[C@H](NC(=O)c1ccc(CNc2ccc(S(=O)(=O)Nc3onc(C)c3C)cc2)cc1-c1ccccc1C)C(=O)O [Example 726],81
6,CSCC[C@H](NC(=O)c1ccc(CN[C@H](CO)Cc2ccccc2)cc1-c1ccccc1C)C(=O)O [Example 727],95
7,CNCC(=O)Nc1ccc(C(=O)N[C@@H](CCSC)C(=O)O)c(-c2ccccc2)c1 [Example 749],84
8,CSCC[C@H](NC(=O)c1ccc(NC(=O)C[C@H]2C[C@@H](C(C)=O)C2(C)C)cc1-c1ccccc1)C(=O)O [Example 751],32
9,CCSC[C@H](CC1CCCCC1)NCc1ccc(C(=O)N[C@@H](CCSC)C(=O)OCOC(=O)C(C)(C)C)c(-c2ccccc2C)c1 [Example 764],88
10,CCSC[C@H](CC1CCCCC1)NCc1ccc(C(=O)N(C)[C@@H](CCSC)C(=O)O)c(-c2ccccc2C)c1 [Example 765],76
11,CSCC[C@H](NC(=O)c1ccc(S(=O)(=O)N(Cc2ccccc2)c2ccccc2)cc1-c1ccccc1C)C(=O)[O-].[Li+] [Example 768],67
12,CSCC[C@H](NC(=O)c1ccc(S(=O)(=O)NCCC2CCCCC2)cc1-c1ccccc1C)C(=O)O [Example 772],79
13,CSCC[C@H](NC(=O)c1ccc(S(=O)(=O)NC2CCN(Cc3ccccc3)CC2)cc1-c1ccccc1C)C(=O)O [Example 773],41
14,CSCC[C@H](NC(=O)c1ccc(S(=O)(=O)NCCN2CCCCC2)cc1-c1ccccc1C)C(=O)O [Example 774],48
15,CSCC[C@H](NC(=O)c1ccc(S(=O)(=O)NCCN2CCOCC2)cc1-c1ccccc1C)C(=O)O [Example 775],32
16,COc1ccc(CCNS(=O)(=O)c2ccc(C(=O)N[C@@H](CCSC)C(=O)O)c(-c3ccccc3C)c2)cc1OC [Example 776],36
17,CSCC[C@H](NC(=O)c1ccc(S(=O)(=O)NCCCn2ccnc2)cc1-c1ccccc1C)C(=O)O [Example 777],83
18,CSCC[C@H](NC(=O)c1ccc(CN(Cc2ccc(C(F)(F)F)cc2)c2ccccc2)cc1-c1ccccc1C)C(=O)O [Example 782],96
19,CSCC[C@H](NC(=O)c1ccc(-c2ccccc2-c2ccccc2)cc1-c1ccccc1C)C(=O)[O-].[Li+] [Example 786],34
20,CSCC[C@H](NC(=O)c1ccc(-c2cccc(-c3ccccc3)c2)cc1-c1ccccc1C)C(=O)[O-].[Li+] [Example 787],70
21,CSCC[C@H](NC(=O)c1ccc(-c2ccc(-c3ccccc3)cc2)cc1-c1ccccc1C)C(=O)[O-].[Li+] [Example 788],44
22,CSCC[C@H](NC(=O)c1ccc(C[C@H]2CC[C@@H](c3ccccc3)CC2)cc1-c1ccccc1C)C(=O)O [Example 790],88
23,CSCC[C@H](NC(=O)c1ccc(/C=C/c2ccccc2)cc1-c1ccccc1C)C(=O)O [Example 791],53
24,CSCC[C@H](NC(=O)c1ccc(CCc2cccc(-c3ccccc3)c2)cc1-c1ccccc1C)C(=O)[O-].[Li+] [Example 793],94

# Same assay, conditions: Table 3; 1 × 10^-7 M
row,Structure (SMILES),% inhibition at 1 × 10^-7 M [%]
1,CSCC[C@H](NC(=O)c1ccc(NC(=O)CN)cc1-c1ccccc1)C(=O)O [Example 748],56
2,CSCC[C@H](NC(=O)c1ccc(CN(c2ccccc2)S(=O)(=O)c2ccccc2)cc1-c1ccccc1C)C(=O)O [Example 769],90
3,CSCC[C@H](NC(=O)c1ccc(CN(c2ccccc2)S(=O)(=O)c2ccc(C)cc2)cc1-c1ccccc1C)C(=O)O [Example 770],91
4,CSCC[C@H](NC(=O)c1ccc(CN(Cc2ccc(Cl)cc2)c2ccccc2)cc1-c1ccccc1C)C(=O)O [Example 781],91
5,CSCC[C@H](NC(=O)c1ccc(C=Cc2cncs2)cc1-c1ccccc1C)C(=O)[O-].[Li+] [Example 785],96

# Same assay, conditions: Table 4; 1 × 10^-8 M
row,Structure (SMILES),% inhibition at 1 × 10^-8 M [%]
1,CSCC[C@H](NC(=O)c1ccc(CN(CCC2CCCCC2)C(=O)c2ccccc2)cc1-c1ccccc1C)C(=O)O [Example 762],84
2,CSCC[C@H](NC(=O)c1ccc(CN[C@H](CSC2CCCCC2)CC2CCCCC2)cc1-c1ccccc1C)C(=O)O [Example 766],95
3,CSCC[C@H](NC(=O)c1ccc(CN[C@H](CSc2ccccc2C)CC2CCCCC2)cc1-c1ccccc1C)C(=O)O [Example 767],97
4,COc1cccc(CN(Cc2ccc(C(=O)N[C@@H](CCSC)C(=O)O)c(-c3ccccc3C)c2)c2ccccc2)c1 [Example 779],70
5,CSCC[C@H](NC(=O)c1ccc(CN(c2ccccc2)S(=O)(=O)c2ccc(C(F)(F)F)cc2)cc1-c1ccccc1C)C(=O)O [Example 780],71

# Same assay, conditions: read-out: % inhibition at 1 × 10^-6 M; Table 2; 1 × 10^-6 M
row,Structure (SMILES),inhibition at 1 µM [%]
1,CSCC[C@H](NC(=O)c1ccc(CSc2nc(O)cc(Cc3ccccc3)n2)cc1-c1ccccc1C)C(=O)O [Example 744],84

# Same assay, conditions: read-out: % inhibition at 1 × 10^-7 M; Table 3; 1 × 10^-7 M
row,Structure (SMILES),inhibition at 0.1 µM [%]
1,CSCC[C@H](NC(=O)c1ccc(CSC2=NCCS2)cc1-c1ccccc1C)C(=O)O [Example 730],96
2,CSCC[C@H](NC(=O)c1ccc(CSc2nc3ccccc3[nH]2)cc1-c1ccccc1C)C(=O)O [Example 732],84
3,CSCC[C@H](NC(=O)c1ccc(CSc2nc3cc(C)ccc3[nH]2)cc1-c1ccccc1C)C(=O)O [Example 733],60
4,CSCC[C@H](NC(=O)c1ccc(CSc2nnc(N)s2)cc1-c1ccccc1C)C(=O)O [Example 734],49
5,CSCC[C@H](NC(=O)c1ccc(CSc2nnc[nH]2)cc1-c1ccccc1C)C(=O)O [Example 735],96
6,CSCC[C@H](NC(=O)c1ccc(CSc2ccccc2C(C)C)cc1-c1ccccc1C)C(=O)O [Example 739],83
7,CSCC[C@H](NC(=O)c1ccc(CSc2ccc(F)cc2)cc1-c1ccccc1C)C(=O)O [Example 740],94
8,CSCC[C@H](NC(=O)c1ccc(CSc2ccc(C)cc2C)cc1-c1ccccc1C)C(=O)O [Example 741],89
9,CSCC[C@H](NC(=O)c1ccc(CSc2nc(C)cc(C)n2)cc1-c1ccccc1C)C(=O)O [Example 743],51
10,CSCC[C@H](NC(=O)c1ccc(CSc2nc3ccccc3c(=O)[nH]2)cc1-c1ccccc1C)C(=O)O [Example 745],93
11,CSCC[C@H](NC(=O)c1ccc(CSc2ncnc3[nH]ncc23)cc1-c1ccccc1C)C(=O)O [Example 746],84
12,CSCC[C@H](NC(=O)c1ccc(CSc2ncnc3[nH]cnc23)cc1-c1ccccc1C)C(=O)O [Example 747],68
